Converted amounts (≈) assume the structure as drawn. Where two headings read alike, the source gives them in different places.
What was measured:
[1] = tested on: Acto. pyog.; experiment: MIC in brain heart infusion (BHI) broth, two-fold dilutions; assay type: cell-based; details: 24 h
Text: (§1) Generally twelve 2 fold dilutions of the test compound are employed, with initial concentration of the test drug being in the range of 50 to 200 mcg./ml. The susceptibility (MIC) of the test organism is accepted as the lowest concentration of compound capable of producing complete inhibition of growth as judged by the naked eye.

[2] = tested on: E. coli; experiment: as above; assay type: cell-based; details: Escherichia coli
Text: as §1

[3] = tested on: Fusob. necro.; experiment: as above; assay type: cell-based; details: 24 h
Text: as §1

[4] = tested on: Hemoph. pleur.; experiment: as above; assay type: cell-based; details: 24 h
Text: as §1

[5] = tested on: Lact. acidoph.; experiment: as above; assay type: cell-based; details: 24 h; Lact. acidoph. 001, Day 1
Text: as §1

[6] = tested on: Lact. sp.; experiment: as above; assay type: cell-based; details: 24 h; Lact. sp. 001, Day 1
Text: as §1

[7] = tested on: Morax. bovis; experiment: as above; assay type: cell-based
Text: as §1

[8] = tested on: Past. haem.; experiment: as above; assay type: cell-based
Text: as §1

[9] = tested on: Past. mult; experiment: as above; assay type: cell-based
Text: as §1

[10] = tested on: Staph. aureus; experiment: as above; assay type: cell-based; details: Staphylococcus aureus
Text: as §1

[11] = tested on: Strep. zooedid.; experiment: as above; assay type: cell-based; details: 24 h; Strep. zooedid. 001, Day 1
Text: as §1

[12] = tested on: Trepo. hyodis.; experiment: as above; assay type: cell-based; details: 24 h
Text: as §1

[13] = tested on: Past. haem. 010; experiment: mouse protection test; assay type: in vivo; details: mice infected i.p. with multilethal amounts of Past. haem. 010
Method: Additionally, compound (I) is tested in vivo by the well-known mouse protection test, or by a microbiological (bioassay) determination of serum levels in a variety of mammals (e.g., mouse, rat, dog). For example, at subcutaneous doses of either 100 mg./kg. or 25 mg./kg., there was survival of 5/5 mice infected i.p. with multilethal amounts of Past. haem. 010.

With `CC=CC=CC1OC(O)(C(CC)C(=O)NCC=CC=C(C)C(OC)C(C)C2OC(C=CC=CC=C(C)C(=O)c3c(O)cc[nH]c3=O)C(O)C2O)C(O)C(OC2OC(C)C(OC3OC(C)C(OC)C(O)C3OC)C(OC)C2O)C1(C)C` (stereo not drawn) [N--Demethylefrotomycin, N-demethylefrotomycin] the MIC ([1]; Acto. pyog. 002, Day 1) was 12.5 µg/mL (≈ 11 µM), the MIC ([1]; Acto. pyog. 008, Day 1) was 12.5 µg/mL (≈ 11 µM) and the MIC ([1]; Acto. pyog. 011, Day 1, read-out: MIC) was 100 µg/mL (≈ 88.4 µM). For the same compound, the MIC ([2]; 24 h, E. coli 124, Day 1) was greater than 100 µg/mL, the MIC ([2]; 48 h, E. coli 124, Day 2) was greater than 100 µg/mL and the MIC ([3]; Fusob. necro. 004, Day 1) was 25 µg/mL (≈ 22.1 µM). It also gave an MIC ([3]; Fusob. necro. 006, Day 1) of 6.25 µg/mL (≈ 5.52 µM), an MIC ([4]; Hemoph. pleur. 004, Day 1) of 12.5 µg/mL (≈ 11 µM) and an MIC ([4]; Hemoph. pleur. 005, Day 1) of 12.5 µg/mL (≈ 11 µM). For the same compound, the MIC ([4]; Hemoph. pleur. 024, Day 1, read-out: MIC) was greater than 100 µg/mL, the MIC [5] was 12.5 µg/mL (≈ 11 µM) and the MIC [6] was greater than 100 µg/mL. The MIC ([7]; 24 h, Morax. bovis 001, Day 1) was 6.25 µg/mL (≈ 5.52 µM), the MIC ([7]; 48 h, Morax. bovis 001, Day 2) was 3.12 µg/mL (≈ 2.76 µM) and the MIC ([8]; 24 h) was 12.5 µg/mL (≈ 11 µM). For the same compound, the MIC ([8]; 24 h, Past. haem. 010, Day 1, read-out: MIC) was 3.12 µg/mL (≈ 2.76 µM), the MIC ([8]; 24 h, Past. haem. 046, Day 1, read-out: MIC) was 25 µg/mL (≈ 22.1 µM) and the MIC ([8]; 24 h, Past. haem. 061, Day 1, read-out: MIC) was 25 µg/mL (≈ 22.1 µM). The MIC ([8]; 48 h) was 12.5 µg/mL (≈ 11 µM), the MIC ([8]; 48 h, Past. haem. 061, Day 2, read-out: MIC) was 3.12 µg/mL (≈ 2.76 µM) and the MIC ([8]; Past. haem. 046, Day 2) was 12.5 µg/mL (≈ 11 µM). For the same compound, the MIC ([9]; 24 h, Past. mult 006, Day 1, read-out: MIC) was 6.25 µg/mL (≈ 5.52 µM), the MIC ([9]; 24 h, Past. mult 048, Day 1, read-out: MIC) was 3.12 µg/mL (≈ 2.76 µM) and the MIC ([9]; 48 h) was 12.5 µg/mL (≈ 11 µM). It also gave an MIC ([9]; 48 h, Past. mult 048, Day 2, read-out: MIC) of 6.25 µg/mL (≈ 5.52 µM), an MIC ([10]; 24 h, Staph. aureus 006, Day 1) greater than 100 µg/mL and an MIC ([10]; 48 h, Staph. aureus 006, Day 2) greater than 100 µg/mL. For the same compound, the MIC [11] was greater than 100 µg/mL, the MIC ([12]; Trepo. hyodis. 001, Day 1) was 1.56 µg/mL (≈ 1.38 µM) and the MIC ([12]; Trepo. hyodis. 002, Day 1) was 0.78 µg/mL (≈ 0.689 µM). For the same compound, the MIC ([12]; Trepo. hyodis. 007, Day 1) was 1.56 µg/mL (≈ 1.38 µM), the survival of mice ([13]; subcutaneous 25 mg./kg.) was 5/5 and the survival of mice ([13]; subcutaneous 100 mg./kg.) was 5/5.

Source: patent publication US4847245A, “N-demethylefrotomycin” (Pfizer Inc., priority 1988, dated 1989)
